Assays:
Gal-3 [1] = details: for Gal-3; cited from earlier work
Gal-1 = details: for Gal-1; cited from earlier work
Gal-3 [2] = biological target: Gal-3 (Homo sapiens, UniProt P17931); experiment: competitive inhibition of Gal-3 binding to immobilized asialofetuin; details: negative control
Gal-3 (Homo sapiens, UniProt P17931), sequence (P17931 whole entry): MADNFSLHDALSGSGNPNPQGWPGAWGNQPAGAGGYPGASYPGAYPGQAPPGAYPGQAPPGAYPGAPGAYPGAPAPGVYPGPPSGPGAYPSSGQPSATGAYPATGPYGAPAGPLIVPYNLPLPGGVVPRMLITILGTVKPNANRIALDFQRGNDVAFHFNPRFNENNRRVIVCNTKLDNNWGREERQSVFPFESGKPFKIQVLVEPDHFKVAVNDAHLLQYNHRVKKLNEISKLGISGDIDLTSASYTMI

Compound | Kd (Gal-3 [1]) | Kd (Gal-1) | interference with Gal-3 binding to ASF (Gal-3 [2])
OC[C@H]1O[C@@H](S[C@@H]2O[C@H](CO)[C@H](O)[C@H](O)[C@H]2O)[C@H](O)[C@@H](O)[C@H]1O [TDG, thiodigalactoside] | 49 µM | 24 µM | 
CO[C@@H]1O[C@H](CO)[C@@H](O[C@@H]2O[C@H](CO)[C@H](O)[C@H](O)[C@H]2O)[C@H](O)[C@H]1NC(C)=O [methyl β-LacNAc] | 67 µM |  | 
CO[C@@H]1O[C@H](CO)[C@@H](O[C@@H]2O[C@H](CO)[C@H](O)[C@H](O)[C@H]2O)[C@H](O)[C@H]1O [methyl β-lactoside] | 220 µM | 190 µM | 
bovine serum albumin [Nonmodified BSA] |  |  | not interfering with Gal-3 binding to ASF
